Key:
[1] = biological target: T1, Recombinant human Cbl-b (aa 36-427) (Homo sapiens, UniProt Q13191); experiment: Cbl-b Biochemical Assay (TR-FRET); conditions: 6 nM Cbl-b, 1-2.5 nM Src-Zap70, 0.5 mM ATP; HTRF signal at 520 nm
T1 construct: Recombinant human Cbl-b (aa 36-427) was expressed in E coli; biotin (biotinylated in vitro); made in house; host or cells: E. coli
Procedure: Cbl-b Biochemical Assay (TR-FRET)
Recombinant human Cbl-b (aa 36-427) was expressed in E coli, purified and biotinylated in vitro. The protein was diluted to 12 nM in freshly prepared assay buffer consisting of 50 mM HEPES, pH 7.0, 100 mM NaCl, 5 mM MgCl2, 0.01% Triton-X 100, 0.01% BSA and 1 mM DTT. Recombinant human Src (aa 254-536)-GSSGSS-Zap-70 (aa 281-297) fusion protein was expressed in E coli and purified. Protein was diluted in assay buffer to 2-5 nM and supplemented with ATP to 1 mM. Fluorescein-BODIPY labeled UBED2D(C85K)-Ub was prepared by conjugating ubiquitin (Ub) labeled at its N-terminus with Fluorescein-BODIPY maleimide (ThermoFisher Catalog no B10250) to E coli expressed and purified UBED2D(C85K) [see Dou et al Nature Structural and Molecular Biology 8: 982-987, 2013]. Recombinant human UBE2D2(C85K) was expressed in E coli, purified and ubiquitinated and Bodipy labelled in vitro. Protein was diluted to 200 nM in assay buffer without MgCl2 (or Cisbio PPI buffer). Streptavidin-Terbium was added to 2 nM and EDTA to 10 mM, to provide a binding assay mix. Compounds were dissolved in DMSO and diluted to prepare a ten-point dilution series. 100 nl of each compound concentration was dispensed in duplicate in a 384 well black assay plate using acoustic dispensing. Wells for maximum signal controls received 100 nl of DMSO only and wells for minimum signal controls received 100 nl of a reference inhibitor compound at a final assay concentration of 100 mM to produce 100% inhibition. 5 μl of diluted Cbl-b enzyme was added to all wells of the assay plate and incubated at RT for 30-60 min. The enzyme assay was initiated by addition of 5 μl of Src-Zap/ATP mix to all wells, and the plate incubated at RT for 60 min. The enzyme reaction was terminated and the binding reaction was initiated by adding 10p of binding assay mix to all wells and incubating the plate at RT for 60 min prior to assay read. Final assay conditions consisted of 6 nM Cbl-b, 1-2.5 nM Src-Zap70, 0.5 mM ATP, 1% (v/v) DMSO (enzyme reaction) and 100 nM UBE2D2(C85K)-Ub-FL-BODIPY, 5 mM EDTA, 1 nM Streptavidin-Tb (binding reaction). The HTRF assay signal was measured at 520 nm on an Envision plate reader, with reference signal at 485 or 620 nm. Data was normalized using maximum and minimum assay controls: % Inhibition=100−(100*((maximum control)−unknown)/(maximum control−minimum control)). A 4-parameter dose-response equation was used to fit the normalized dose-response data and derive an IC50 for test compounds.

[2] = test system: Recombinant human c-Cbl (aa 47-435); experiment: c-Cbl Biochemical Assay (TR-FRET); conditions: ratio from the Cbl-b and c-Cbl TR-FRET biochemical assays
Procedure: c-Cbl Biochemical Assay (TR-FRET)
Recombinant human c-Cbl (aa 47-435) was expressed in E coli, purified and biotinylated in vitro. The protein was diluted to 12 nM in freshly prepared assay buffer consisting of 50 mM HEPES, pH 7.0, 100 mM NaCl, 5 mM MgCl2, 0.01% Triton-X 100, 0.01% BSA and 1 mM DTT. Recombinant human Src (aa 254-536)-GSSGSS-Zap-70 (aa 281-297) fusion protein was expressed in E coli and purified. Protein was diluted in assay buffer to 5-20 nM and ATP was added to 1 mM. Recombinant human UBE2D2(C85K) was expressed in E coli, purified and ubiquitinated and Bodipy labelled in vitro. Protein was diluted to 200 nM in assay buffer without MgCl2 (or Cisbio PPI buffer). Streptavidin-Terbium was added to 2 nM and EDTA to 10 mM, to provide a binding assay mix. Compounds were dissolved in DMSO and diluted to prepare a ten-point half log dilution series. 100 nl of each compound concentration was dispensed in duplicate in a 384 well black assay plate using acoustic dispensing. Wells for maximum signal controls received 100 nl of DMSO only and wells for minimum controls received 100 nl of a reference inhibitor compound at a final assay concentration of 100 mM to produce 100% inhibition. 5 μl of diluted c-Cbl enzyme was added to all wells of the assay plate and incubated at RT for 30 min. The enzyme assay was initiated by addition of 5 d of Src-Zap/ATP mix to all wells, and the plate incubated at RT for 60-90 min. The enzyme reaction was terminated and the binding reaction was initiated by adding 10p of binding assay mix to all wells and incubating the plate at RT for 60 min prior to assay read. Final assay conditions consisted of 6 nM c-Cbl. 2.5-10 nM Src-Zap70, 0.5 mM ATP. 1% (v/v) DMSO (enzyme reaction) and 100 nM UBE2D2(C85K)-Ub-FL-BODIPY, 5 mM EDTA, 1 nM Streptavidin-Tb (binding reaction). The HTRF assay signal was measured at 520 nm on an Envision plate reader, with reference signal at 485 or 620 nm. Data was normalized using maximum and minimum assay controls: % Inhibition=100−(100*((maximum control)−unknown)/(maximum control−minimum control)). A 4-parameter dose-response equation was used to fit the normalized dose-response data and derive an IC50 for test compounds.

T1 sequence (Q13191 36-427): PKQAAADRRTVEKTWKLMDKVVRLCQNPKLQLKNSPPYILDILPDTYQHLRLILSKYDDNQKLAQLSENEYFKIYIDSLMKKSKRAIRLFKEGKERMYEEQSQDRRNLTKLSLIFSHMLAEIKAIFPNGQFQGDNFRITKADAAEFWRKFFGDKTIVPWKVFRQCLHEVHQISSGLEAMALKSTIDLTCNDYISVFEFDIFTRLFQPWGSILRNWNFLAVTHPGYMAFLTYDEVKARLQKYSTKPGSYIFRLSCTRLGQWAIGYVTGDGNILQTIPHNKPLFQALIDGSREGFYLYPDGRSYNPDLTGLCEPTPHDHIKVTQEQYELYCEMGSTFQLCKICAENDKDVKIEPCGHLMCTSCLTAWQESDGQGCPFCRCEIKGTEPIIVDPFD

Row | SMILES | IC50 [1] [nM] | Cbl-b/c-Cbl Selectivity [2]
1 | C[C@H]1CCCN(Cc2cc(C(F)(F)F)c3oc(-c4cccc([C@H](c5nncn5C)C5COC5)c4)nc3c2)C1 [I-52] | 200 to 5000 | 7
2 | C[C@H]1CCCN(Cc2cc(C(F)(F)F)c3oc(-c4cccc(C(c5nncn5C)C5CCC5)c4)nc3c2)C1 (some centres unmarked) [I-48] | < 200 | 9
3 | Cn1cnnc1[C@H](c1cccc(-c2nc3cc(CN4CCC5(CCC5)C4)cc(C(F)(F)F)c3o2)c1)[C@H]1C[C@H](C(F)(F)F)C1 [I-62] | > 5000 | 2
4 | Cn1cnnc1-c1ccc(C#N)cc1-c1cc(NC[C@@H](O)CC#N)nc(-n2cc3c(C(F)(F)F)cc(CN4CCC5(CCC5)C4)cn3c2=O)c1 [I-50, (S)-3-(2-(6-((6-Azaspiro[3.4]octan-6-yl)methyl)-3-oxo-8-(trifluoromethyl)imidazo[1,5-a]pyridin-2(3H)-yl)-6-((3-cyano-2-hydroxypropyl)amino)pyridin-4-yl)-4-(4-methyl-4H-1,2,4-triazol-3-yl)benzonitrile] | < 200 | 21
5 | Cn1cnnc1-c1ccccc1-c1cc(NCCCC#N)nc(-c2nc3cc(CNCC(C)(C)O)cc(C(F)(F)F)c3o2)c1 [I-55, 4-((6-(5-(((2-Hydroxy-2-methylpropyl)amino)methyl)-7-(trifluoromethyl)benzo[d]oxazol-2-yl)-4-(2-(4-methyl-4H-1,2,4-triazol-3-yl)phenyl)pyridin-2-yl)amino)butanenitrile] | < 200 | 11
6 | CO[C@@H]1CCCN(Cc2cc(C(F)(F)F)c3oc(-c4cccc([C@]5(c6nncn6C)C[C@@H](C)C5)c4)nc3c2)C1 [I-7] | 200 to 5000 | 12
7 | C[C@H]1CCCN(Cc2cc(C(F)(F)F)c3oc(-c4cccc([C@H](c5nncn5C)C5CCC5)c4)nc3c2)C1 (single isomer, unassigned) [I-33] | < 200 | 10

— US20260209222A1, “CBL-B MODULATORS AND USES THEREOF” (Nimbus Clio, Inc., priority 2022, published 2026)
